“And” between values parts separate entries of the source, which are not always exact repeats. Equal values may be shown once. Toxic doses and inconclusive results are not listed. Rule as the data show it: active = T/C of 150% or more; inactive = T/C below 125%.
Test system: L1210 leukemia ip in BDF1 mice, survival T/C
Assay: NCI In Vivo Anticancer Drug Screen. Data for tumor model L1210 Leukemia (intraperitoneal) in B6D2F1 (BDF1) mice
Settings: endpoint: mean survival time, higher = longer survival
Method in brief: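 Mice bearing the transplanted tumor received compound or vehicle. Survival of the treated group was divided by that of the vehicle-treated control group to give the ratio.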

[1] = dose: 100.0 mg/kg/injection, schedule: Q01DX009 (ip), vehicle: Klucel (hydroxypropylcellulose) (HPC)
[2] = dose: 100.0 mg/kg/injection, schedule: Q04DX003 (ip), vehicle: Klucel (hydroxypropylcellulose) (HPC)
[3] = dose: 200.0 mg/kg/injection, schedule: Q01DX009 (ip), vehicle: Klucel (hydroxypropylcellulose) (HPC)
[4] = dose: 200.0 mg/kg/injection, schedule: Q04DX003 (ip), vehicle: saline with Tween-80
[5] = dose: 400.0 mg/kg/injection, schedule: Q01DX009 (ip), vehicle: Klucel (hydroxypropylcellulose) (HPC)
[6] = dose: 400.0 mg/kg/injection, schedule: Q04DX003 (ip), vehicle: Klucel (hydroxypropylcellulose) (HPC)
[7] = dose: 400.0 mg/kg/injection, schedule: Q04DX003 (ip), vehicle: saline with Tween-80
[8] = dose: 200.0 mg/kg/injection, schedule: Q04DX003 (ip), vehicle: Klucel (hydroxypropylcellulose) (HPC)
[9] = dose: 100.0 mg/kg/injection, schedule: Q04DX002 (ip), vehicle: saline with Tween-80
[10] = dose: 200.0 mg/kg/injection, schedule: Q04DX002 (ip), vehicle: saline with Tween-80
[11] = dose: 400.0 mg/kg/injection, schedule: Q04DX002 (ip), vehicle: saline with Tween-80
[12] = dose: 50.0 mg/kg/injection, schedule: Q01DX009 (ip), vehicle: Klucel (hydroxypropylcellulose) (HPC)

Measured: T/C

CN=C(c1ccc(NC(=O)c2ccc(C(=O)Nc3ccc(C(=NC)N(C)c4ccccc4)cc3)cc2)cc1)N(C)c1ccccc1
inactive: dose: 0.94 mg/kg/injection, schedule: Q01DX Z (ip), vehicle: saline 106 % of control | dose: 1.88 mg/kg/injection, schedule: Q01DX Z (ip), vehicle: saline 104 % of control | dose: 3.75 mg/kg/injection, schedule: Q01DX Z (ip), vehicle: saline 90 % of control

O=C1NC23CC=CCC12CCC3 (stereo not given)
inactive: dose: 100.0 mg/kg/injection, schedule: Q04DX002 (ip), vehicle: saline 100 % of control | dose: 200.0 mg/kg/injection, schedule: Q04DX002 (ip), vehicle: saline 93 % of control | dose: 400.0 mg/kg/injection, schedule: Q04DX002 (ip), vehicle: saline 109 % of control

CCCCCC(Br)C(Br)CC(Br)C(Br)CCCCCCCC(=O)O (stereo not given)
inactive: [1] 95 % of control | [2] 98 % of control | dose: 100.0 mg/kg/injection, schedule: Q04DX003 (ip), vehicle: saline with Tween-80 98 % of control | [3] 90 % of control | [4] 97 % of control | [5] 93 % of control | [6] 93 % of control | [7] 91 % of control

Cc1ccc(S(=O)(=O)N2CCC(=O)c3ccc(Cl)cc32)cc1
inactive: [2] 93 % of control | [8] 94 % of control | [6] 96 % of control

NC(CSS(=O)(=O)O)=NCCCc1nc2ccccc2[nH]1
inactive: dose: 100.0 mg/kg/injection, schedule: Q04DX002 (ip), vehicle: Klucel (hydroxypropylcellulose) (HPC) 106 % of control | dose: 200.0 mg/kg/injection, schedule: Q04DX002 (ip), vehicle: Klucel (hydroxypropylcellulose) (HPC) 92 % of control | dose: 400.0 mg/kg/injection, schedule: Q04DX002 (ip), vehicle: Klucel (hydroxypropylcellulose) (HPC) 95 % of control

Nc1[nH]c(=S)[nH]c(=O)c1NC=O
inactive: dose: 16.0 mg/kg/injection, schedule: Q01DX Z (ip), vehicle: methylcellulose (MC) 103 % of control | dose: 31.0 mg/kg/injection, schedule: Q01DX Z (ip), vehicle: methylcellulose (MC) 106 % of control | dose: 62.0 mg/kg/injection, schedule: Q01DX Z (ip), vehicle: methylcellulose (MC) 108 % of control | dose: 125.0 mg/kg/injection, schedule: Q01DX Z (ip), vehicle: methylcellulose (MC) 96 % of control and 97 % of control | dose: 250.0 mg/kg/injection, schedule: Q01DX Z (ip), vehicle: methylcellulose (MC) 100 % of control | dose: 500.0 mg/kg/injection, schedule: Q01DX Z (ip), vehicle: methylcellulose (MC) 112 % of control

Cc1ccc(N=NC2C(=O)c3ccccc3C2=O)cc1
inactive: dose: 50.0 mg/kg/injection, schedule: Q01DX001 (ip), vehicle: saline 100 % of control | dose: 100.0 mg/kg/injection, schedule: Q01DX001 (ip), vehicle: saline 100 % of control | dose: 200.0 mg/kg/injection, schedule: Q01DX001 (ip), vehicle: saline 97 % of control | dose: 400.0 mg/kg/injection, schedule: Q01DX001 (ip), vehicle: saline 103 % of control

CCCCCCCCCCCCN1CCSCC1
inactive: dose: 25.0 mg/kg/injection, schedule: Q04DX003 (ip), vehicle: saline with Tween-80 95 % of control and 105 % of control | dose: 50.0 mg/kg/injection, schedule: Q04DX003 (ip), vehicle: saline with Tween-80 104 % of control and 90 % of control | dose: 100.0 mg/kg/injection, schedule: Q01DX001 (ip), vehicle: saline with Tween-80 105 % of control and 117 % of control | [9] 95 % of control and 113 % of control | dose: 200.0 mg/kg/injection, schedule: Q01DX001 (ip), vehicle: saline with Tween-80 94 % of control and 117 % of control | [10] 95 % of control and 113 % of control | [4] 93 % of control and 104 % of control and 110 % of control | dose: 400.0 mg/kg/injection, schedule: Q01DX001 (ip), vehicle: saline with Tween-80 97 % of control and 104 % of control | [11] 97 % of control and 98 % of control | [7] 108 % of control and 90 % of control

O=C1CCCC2CCCC12 (stereo not given)
inactive: dose: 100.0 mg/kg/injection, schedule: Q01DX001 (ip), vehicle: carboxymethylcellulose (CMC) 93 % of control | dose: 200.0 mg/kg/injection, schedule: Q01DX001 (ip), vehicle: carboxymethylcellulose (CMC) 95 % of control | dose: 400.0 mg/kg/injection, schedule: Q01DX001 (ip), vehicle: carboxymethylcellulose (CMC) 93 % of control

NC(Cc1cc(I)c(O)c(I)c1)C(=O)O (stereo not given)
inactive: dose: 12.5 mg/kg/injection, schedule: Q01DX009 (ip), vehicle: carboxymethylcellulose (CMC) 101 % of control | dose: 25.0 mg/kg/injection, schedule: Q01DX009 (ip), vehicle: carboxymethylcellulose (CMC) 99 % of control | dose: 25.0 mg/kg/injection, schedule: Q01DX009 (ip), vehicle: saline 92 % of control | dose: 25.0 mg/kg/injection, schedule: Q04DX003 (ip), vehicle: carboxymethylcellulose (CMC) 101 % of control | dose: 50.0 mg/kg/injection, schedule: Q01DX009 (ip), vehicle: carboxymethylcellulose (CMC) 90 % of control | dose: 50.0 mg/kg/injection, schedule: Q01DX009 (ip), vehicle: saline 112 % of control | dose: 50.0 mg/kg/injection, schedule: Q04DX003 (ip), vehicle: carboxymethylcellulose (CMC) 100 % of control | dose: 100.0 mg/kg/injection, schedule: Q01DX009 (ip), vehicle: carboxymethylcellulose (CMC) 99 % of control | dose: 100.0 mg/kg/injection, schedule: Q01DX009 (ip), vehicle: saline 108 % of control | dose: 100.0 mg/kg/injection, schedule: Q04DX003 (ip), vehicle: carboxymethylcellulose (CMC) 96 % of control | dose: 200.0 mg/kg/injection, schedule: Q01DX009 (ip), vehicle: carboxymethylcellulose (CMC) 91 % of control | dose: 200.0 mg/kg/injection, schedule: Q01DX009 (ip), vehicle: saline 108 % of control | dose: 200.0 mg/kg/injection, schedule: Q04DX003 (ip), vehicle: carboxymethylcellulose (CMC) 92 % of control | dose: 400.0 mg/kg/injection, schedule: Q01DX009 (ip), vehicle: saline 95 % of control | dose: 400.0 mg/kg/injection, schedule: Q04DX003 (ip), vehicle: carboxymethylcellulose (CMC) 100 % of control

Nc1ccc(C(=O)Nc2ccc(Nc3ccncc3)cc2)cc1
inactive: [1] 112 % of control | [2] 108 % of control | [3] 106 % of control | [8] 103 % of control | [5] 103 % of control | [6] 106 % of control

Cc1cc(Cl)ccc1NC(=O)COc1ccc(Cl)cc1
inactive: dose: 25.0 mg/kg/injection, schedule: Q01DX009 (ip), vehicle: Klucel (hydroxypropylcellulose) (HPC) 100 % of control | [12] 90 % of control | [1] 88 % of control | [2] 104 % of control | [8] 101 % of control | [6] 92 % of control

CCCCN(CCCC)S(=O)(=O)CC
inactive: [9] 100 % of control | [10] 98 % of control | [11] 95 % of control

CN(C)C(=S)SSC(=S)N(C)C
inactive: [12] 92 % of control | [1] 99 % of control | dose: 100.0 mg/kg/injection, schedule: Q04DX003 (ip), vehicle: other 95 % of control | dose: 200.0 mg/kg/injection, schedule: Q04DX003 (ip), vehicle: other 103 % of control | dose: 400.0 mg/kg/injection, schedule: Q04DX003 (ip), vehicle: other 96 % of control

CCNCCCNCC
inactive: dose: 75.0 mg/kg/injection, schedule: Q01DX001 (ip), vehicle: saline 100 % of control | dose: 150.0 mg/kg/injection, schedule: Q01DX001 (ip), vehicle: saline 93 % of control
